Results on 2 compounds are retold here after paper doi:10.1101/2024.08.13.607785v1 (biorxiv, 2024).

Holding throughout (assay): biochemical
What all share (parameters): species or system mixed lysate of K562, MV4-11, THP-1, NCI-H1155

Assay [1] has as its target Calcium/calmodulin-dependent protein kinase kinase 1 ; CAMKK1 ; Q8N5S9 (Homo sapiens, UniProt Q8N5S9).
Assay [2] addresses Cyclin-dependent kinase 10 ; CDK10 ; Q15131 (Homo sapiens, UniProt Q15131).
Assay [3] addresses Cyclin-dependent kinase 12 ; CDK12 ; Q9NYV4 (Homo sapiens, UniProt Q9NYV4).
Assay [4] addresses Cyclin-dependent kinase 16 ; CDK16 ; Q00536 (Homo sapiens, UniProt Q00536).
Assay [5] deals with Cyclin-dependent kinase 19 ; CDK19 ; Q9BWU1 (Homo sapiens, UniProt Q9BWU1).
For assay [6], the target named is Cyclin-dependent kinase 2 ; CDK2 ; P24941 (Homo sapiens, UniProt P24941).
In assay [7] the target is Cyclin-dependent kinase 6 ; CDK6 ; Q00534 (Homo sapiens, UniProt Q00534).
Assay [8] has as its target Cyclin-dependent kinase 9 ; CDK9 ; P50750 (Homo sapiens, UniProt P50750).
Assay [9] has as its target Cyclin-dependent-like kinase 5 ; CDK5 ; Q00535 (Homo sapiens, UniProt Q00535).
The target in assay [10] is T1, Discoidin domain-containing receptor 2 ; DDR2 ; Q16832 (Homo sapiens, UniProt Q16832).
T1 sequence (Q16832 1-855): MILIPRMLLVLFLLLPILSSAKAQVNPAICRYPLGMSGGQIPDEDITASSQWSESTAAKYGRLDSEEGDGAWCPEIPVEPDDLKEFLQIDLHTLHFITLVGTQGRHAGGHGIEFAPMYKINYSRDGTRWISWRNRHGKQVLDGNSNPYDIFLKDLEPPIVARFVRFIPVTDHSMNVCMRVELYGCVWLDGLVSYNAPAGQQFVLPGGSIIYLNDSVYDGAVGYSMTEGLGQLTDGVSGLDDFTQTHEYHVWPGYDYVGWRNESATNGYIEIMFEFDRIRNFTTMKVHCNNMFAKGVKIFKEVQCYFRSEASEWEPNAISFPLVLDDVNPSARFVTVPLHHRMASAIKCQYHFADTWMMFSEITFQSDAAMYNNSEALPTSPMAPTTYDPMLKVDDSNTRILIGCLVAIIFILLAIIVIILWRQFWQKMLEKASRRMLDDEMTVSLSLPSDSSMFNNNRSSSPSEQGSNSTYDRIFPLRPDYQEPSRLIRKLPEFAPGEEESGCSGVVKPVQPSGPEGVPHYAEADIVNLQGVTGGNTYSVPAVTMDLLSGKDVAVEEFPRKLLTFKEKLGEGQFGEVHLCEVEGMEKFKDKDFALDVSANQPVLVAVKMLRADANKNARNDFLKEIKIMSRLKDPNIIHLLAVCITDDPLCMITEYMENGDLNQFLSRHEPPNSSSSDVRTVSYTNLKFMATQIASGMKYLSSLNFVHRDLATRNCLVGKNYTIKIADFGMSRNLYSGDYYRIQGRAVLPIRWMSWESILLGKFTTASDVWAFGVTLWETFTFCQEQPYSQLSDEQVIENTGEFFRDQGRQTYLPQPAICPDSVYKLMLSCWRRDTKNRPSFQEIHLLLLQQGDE

For assay [11], the target named is Epithelial discoidin domain-containing receptor 1 ; DDR1 ; Q08345 (Homo sapiens, UniProt Q08345).
Assay [12] concerns the target High affinity nerve growth factor receptor ; NTRK1 ; P04629 (Homo sapiens, UniProt P04629).
Assay [13] deals with Isoform 2 of Glycogen synthase kinase-3 beta ; GSK3B ; P49841-2 (Homo sapiens, UniProt P49841).
The target of assay [14] is Non-receptor tyrosine-protein kinase TYK2 ; TYK2 ; P29597 (Homo sapiens, UniProt P29597).
[15] abbreviates: read-out: BAY-1143572 (10 µM) / %Intensity relative to DMSO.
Where [16] appears, read: read-out: BAY-1251152 (10 µM) / %Intensity relative to DMSO.

Where two headings read alike, the source gives them in different places.

Sequence of Cyclin-dependent kinase 9 ; CDK9 ; P50750 (P50750 whole entry, one chain of several): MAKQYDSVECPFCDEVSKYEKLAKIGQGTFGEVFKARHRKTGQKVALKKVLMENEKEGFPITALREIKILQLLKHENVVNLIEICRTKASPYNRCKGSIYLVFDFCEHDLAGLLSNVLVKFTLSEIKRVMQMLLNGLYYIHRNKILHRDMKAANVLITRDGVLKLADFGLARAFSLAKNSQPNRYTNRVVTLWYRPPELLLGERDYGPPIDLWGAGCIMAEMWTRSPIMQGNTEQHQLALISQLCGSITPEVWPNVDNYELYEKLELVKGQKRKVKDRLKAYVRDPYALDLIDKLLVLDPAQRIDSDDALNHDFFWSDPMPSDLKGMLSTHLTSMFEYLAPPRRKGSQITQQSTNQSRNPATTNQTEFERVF
Sequence of Cyclin-dependent-like kinase 5 ; CDK5 ; Q00535 (Q00535 whole entry, the tested form may be a part, one chain of several): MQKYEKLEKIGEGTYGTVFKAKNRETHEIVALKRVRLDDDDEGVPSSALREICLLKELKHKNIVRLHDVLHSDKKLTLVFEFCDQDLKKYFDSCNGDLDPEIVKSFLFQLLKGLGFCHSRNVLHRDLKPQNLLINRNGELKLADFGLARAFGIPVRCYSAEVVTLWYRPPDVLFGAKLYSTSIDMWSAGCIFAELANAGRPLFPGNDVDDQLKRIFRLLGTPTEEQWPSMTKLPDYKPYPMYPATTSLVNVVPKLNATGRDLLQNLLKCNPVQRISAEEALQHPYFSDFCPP
Sequence of Cyclin-dependent kinase 16 ; CDK16 ; Q00536 (Q00536 whole entry, one chain of several): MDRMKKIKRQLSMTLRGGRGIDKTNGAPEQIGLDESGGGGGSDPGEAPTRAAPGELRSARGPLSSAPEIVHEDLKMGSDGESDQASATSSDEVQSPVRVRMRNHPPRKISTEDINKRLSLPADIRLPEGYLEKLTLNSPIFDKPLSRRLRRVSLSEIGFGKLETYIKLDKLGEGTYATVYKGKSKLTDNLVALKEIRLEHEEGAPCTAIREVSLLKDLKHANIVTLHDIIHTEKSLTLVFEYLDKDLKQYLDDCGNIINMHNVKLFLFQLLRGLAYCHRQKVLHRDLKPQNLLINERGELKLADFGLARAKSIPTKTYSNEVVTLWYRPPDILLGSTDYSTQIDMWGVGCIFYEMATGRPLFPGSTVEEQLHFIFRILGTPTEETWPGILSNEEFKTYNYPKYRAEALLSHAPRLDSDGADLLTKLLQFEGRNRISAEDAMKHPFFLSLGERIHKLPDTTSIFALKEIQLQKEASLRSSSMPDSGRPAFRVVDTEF
Sequence of Cyclin-dependent kinase 6 ; CDK6 ; Q00534 (Q00534 whole entry, one chain of several): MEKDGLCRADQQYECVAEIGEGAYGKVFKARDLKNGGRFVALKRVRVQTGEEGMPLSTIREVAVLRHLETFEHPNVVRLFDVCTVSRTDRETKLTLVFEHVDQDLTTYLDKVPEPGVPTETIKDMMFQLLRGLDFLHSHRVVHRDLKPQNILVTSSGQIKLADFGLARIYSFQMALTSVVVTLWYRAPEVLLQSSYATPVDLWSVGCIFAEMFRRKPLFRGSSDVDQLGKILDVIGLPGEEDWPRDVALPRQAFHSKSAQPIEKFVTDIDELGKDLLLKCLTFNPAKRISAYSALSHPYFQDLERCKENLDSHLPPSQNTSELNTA
Sequence of Cyclin-dependent kinase 19 ; CDK19 ; Q9BWU1 (Q9BWU1 whole entry, one chain of several): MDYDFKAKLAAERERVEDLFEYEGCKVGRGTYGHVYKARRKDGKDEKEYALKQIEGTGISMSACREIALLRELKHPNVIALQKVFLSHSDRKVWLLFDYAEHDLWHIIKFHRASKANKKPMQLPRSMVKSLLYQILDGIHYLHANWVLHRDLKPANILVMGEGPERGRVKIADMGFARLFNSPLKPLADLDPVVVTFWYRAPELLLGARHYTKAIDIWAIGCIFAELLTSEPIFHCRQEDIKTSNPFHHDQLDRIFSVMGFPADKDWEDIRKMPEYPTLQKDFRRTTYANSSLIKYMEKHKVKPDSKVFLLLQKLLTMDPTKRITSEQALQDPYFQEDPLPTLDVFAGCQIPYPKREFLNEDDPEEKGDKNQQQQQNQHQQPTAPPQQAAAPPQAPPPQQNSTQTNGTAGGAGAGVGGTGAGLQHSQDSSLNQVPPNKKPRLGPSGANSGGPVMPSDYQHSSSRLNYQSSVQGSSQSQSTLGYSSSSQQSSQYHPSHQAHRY
Sequence of Isoform 2 of Glycogen synthase kinase-3 beta ; GSK3B ; P49841-2 (P49841 whole entry, canonical isoform): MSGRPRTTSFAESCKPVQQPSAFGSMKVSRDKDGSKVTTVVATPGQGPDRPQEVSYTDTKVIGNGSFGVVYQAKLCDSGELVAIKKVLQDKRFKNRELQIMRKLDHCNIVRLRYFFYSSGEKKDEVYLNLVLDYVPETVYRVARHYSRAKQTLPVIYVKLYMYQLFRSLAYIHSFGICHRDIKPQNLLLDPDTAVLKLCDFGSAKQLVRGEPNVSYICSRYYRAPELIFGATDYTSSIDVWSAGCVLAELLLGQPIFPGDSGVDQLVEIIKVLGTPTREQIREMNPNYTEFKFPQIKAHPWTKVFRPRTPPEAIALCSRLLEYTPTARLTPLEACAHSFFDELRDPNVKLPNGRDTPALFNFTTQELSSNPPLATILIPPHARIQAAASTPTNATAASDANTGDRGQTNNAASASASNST
Sequence of Calcium/calmodulin-dependent protein kinase kinase 1 ; CAMKK1 ; Q8N5S9 (Q8N5S9 whole entry, one chain of several): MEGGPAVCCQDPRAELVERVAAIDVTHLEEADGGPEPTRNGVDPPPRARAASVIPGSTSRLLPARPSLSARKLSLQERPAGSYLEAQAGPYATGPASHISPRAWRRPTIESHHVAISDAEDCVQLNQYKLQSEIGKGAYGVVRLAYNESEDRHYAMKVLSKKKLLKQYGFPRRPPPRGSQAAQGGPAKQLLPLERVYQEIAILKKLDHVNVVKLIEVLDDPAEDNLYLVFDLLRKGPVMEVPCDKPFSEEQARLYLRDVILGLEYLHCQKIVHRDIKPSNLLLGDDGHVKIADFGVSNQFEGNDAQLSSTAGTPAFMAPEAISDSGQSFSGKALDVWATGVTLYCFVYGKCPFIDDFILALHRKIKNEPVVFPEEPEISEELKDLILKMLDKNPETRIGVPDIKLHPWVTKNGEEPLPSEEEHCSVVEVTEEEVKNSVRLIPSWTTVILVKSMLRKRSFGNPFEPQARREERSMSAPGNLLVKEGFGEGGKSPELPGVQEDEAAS
Sequence of Non-receptor tyrosine-protein kinase TYK2 ; TYK2 ; P29597 (P29597 whole entry): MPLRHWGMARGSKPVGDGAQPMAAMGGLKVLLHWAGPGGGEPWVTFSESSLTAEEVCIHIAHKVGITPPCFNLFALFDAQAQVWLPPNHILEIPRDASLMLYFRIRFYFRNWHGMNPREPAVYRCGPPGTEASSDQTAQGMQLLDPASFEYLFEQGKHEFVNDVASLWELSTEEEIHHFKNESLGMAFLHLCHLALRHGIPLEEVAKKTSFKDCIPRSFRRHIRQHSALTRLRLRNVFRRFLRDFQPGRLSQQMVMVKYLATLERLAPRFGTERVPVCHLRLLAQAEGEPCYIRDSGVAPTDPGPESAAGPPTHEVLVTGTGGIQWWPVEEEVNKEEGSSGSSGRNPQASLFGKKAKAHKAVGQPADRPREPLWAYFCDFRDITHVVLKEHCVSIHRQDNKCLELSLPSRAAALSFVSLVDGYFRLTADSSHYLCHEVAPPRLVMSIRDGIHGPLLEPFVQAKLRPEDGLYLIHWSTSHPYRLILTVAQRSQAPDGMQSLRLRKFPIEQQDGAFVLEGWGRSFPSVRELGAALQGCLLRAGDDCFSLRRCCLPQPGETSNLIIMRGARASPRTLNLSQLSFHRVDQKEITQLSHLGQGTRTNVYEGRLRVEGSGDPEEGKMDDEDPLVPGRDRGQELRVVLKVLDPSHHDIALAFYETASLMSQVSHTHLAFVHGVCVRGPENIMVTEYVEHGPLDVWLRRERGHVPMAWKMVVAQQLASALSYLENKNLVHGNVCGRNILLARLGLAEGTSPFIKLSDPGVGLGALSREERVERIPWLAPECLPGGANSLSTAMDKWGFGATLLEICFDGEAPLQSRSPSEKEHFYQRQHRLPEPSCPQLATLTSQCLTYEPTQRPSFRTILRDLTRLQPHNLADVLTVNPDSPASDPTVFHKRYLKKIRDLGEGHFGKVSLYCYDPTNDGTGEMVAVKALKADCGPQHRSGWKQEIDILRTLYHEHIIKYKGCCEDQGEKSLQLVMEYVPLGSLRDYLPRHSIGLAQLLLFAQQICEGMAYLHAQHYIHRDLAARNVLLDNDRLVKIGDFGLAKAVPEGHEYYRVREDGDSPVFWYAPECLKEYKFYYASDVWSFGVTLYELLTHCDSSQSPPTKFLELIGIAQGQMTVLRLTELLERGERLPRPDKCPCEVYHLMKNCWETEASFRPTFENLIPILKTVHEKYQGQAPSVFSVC
Sequence of Cyclin-dependent kinase 10 ; CDK10 ; Q15131 (Q15131 whole entry, one chain of several): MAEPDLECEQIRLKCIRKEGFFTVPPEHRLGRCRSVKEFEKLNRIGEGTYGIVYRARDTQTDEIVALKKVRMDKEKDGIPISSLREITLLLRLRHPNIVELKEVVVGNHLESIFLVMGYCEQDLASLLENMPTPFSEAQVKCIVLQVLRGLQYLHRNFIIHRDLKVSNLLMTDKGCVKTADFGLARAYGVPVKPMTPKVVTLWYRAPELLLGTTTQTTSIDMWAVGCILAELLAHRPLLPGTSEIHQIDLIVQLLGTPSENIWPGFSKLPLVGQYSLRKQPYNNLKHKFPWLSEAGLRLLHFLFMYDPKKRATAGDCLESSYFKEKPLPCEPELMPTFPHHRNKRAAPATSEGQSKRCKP

Take `COc1cc(F)ccc1-c1ncnc(Nc2cccc(C[S@](C)(=N)=O)c2)n1` [BAY-1143572]: the remaining activity at 10 µM in assay [1] (setting [15]) came to 15.4%; in [2] (setting [15]), 29.6%; in assay [3] (setting [15]) it was 64.7%; in [4] (setting [15]) it was 58.1%; in assay [5] (setting [15]), 97.8%; in assay [6] (setting [15]) it was 31.4%. The remaining activity at 10 µM in assay [7] (setting [15]) worked out at 94.2%; in assay [8] (setting [15]), 3.85%; in assay [9] (setting [15]), 83.6%; in assay [10] (setting [15]), 72.3%; in assay [11] (setting [15]) it was 56%; in assay [12] (setting [15]), 106%. The remaining activity at 10 µM was 7.95% in assay [13] (setting [15]) and 27.1% in assay [14] (setting [15]).

For `COc1cc(F)ccc1-c1cc(Nc2cc(CS(C)(=N)=O)ccn2)ncc1F` (stereo not shown) [BAY-1251152], the remaining activity at 10 µM in assay [1] (setting [16]) came out at 10.4%; in [2] (setting [16]), 16.9%; in assay [3] (setting [16]), 37.5%; in assay [4] (setting [16]), 25.7%; in assay [5] (setting [16]), 90.5%; in assay [6] (setting [16]), 34.1%. Besides, the remaining activity at 10 µM in assay [7] (setting [16]) is 82.1%; in assay [8] (setting [16]), 2.79%; in [9] (setting [16]) it was 84.7%; in assay [10] (setting [16]), 38.5%; in assay [11] (setting [16]) it was 48.9%; in [12] (setting [16]) it was 26.5%. Moreover, the results for the remaining activity at 10 µM in [13] (setting [16]) and in assay [14] (setting [16]) were 11.9% and 89.6%, respectively.
